Laboratory results as given in patent EP3811945A1, “COMPOUNDS FOR TREATING AND PREVENTING GROWTH HORMONE RECEPTOR-DEPENDENT CONDITIONS” (UMC Utrecht Holding B.V., priority 2019, dated 2021).

Experiments:
MDA-MB-231 = assay: Luminescent cell viability assay (ATP); type: cell-based; details: Homo sapiens, 46 hours, luciferase signal normalized to untreated cells = 1, read-out: Relative viability MDA-MB-231
Protocol: (§1) Compounds were assessed for effects on viability of the breast cancer cell lines MDA-MB-231 and MDA-MB-453. The cells were incubated with the compounds for 46 hours at a concentration of 5 uM. DMSO was used as vehicle control. Cell viability was assessed after approximately 46 hours by using a luminescent cell viability assay. This assay generates a luminescent signal, proportional to the amount of ATP that is present as a readout of metabolically active cells. Relative viability was calculated by expressing the luciferase signal as a value normalized to untreated cells, meaning that the measured luciferase signal in untreated cells equals 1.

MDA-MB-453 = assay: Luminescent cell viability assay (ATP); type: cell-based; details: Homo sapiens, 46 hours, luciferase signal normalized to untreated cells = 1, read-out: relative viability MDA-MB-453
Protocol: as §1

[1] = test system: triple negative human breast cancer cells (MDA-MB-231); assay: Proliferation test (DNA in vital cells, dose-response); type: cell-based; details: inhibition of proliferation of MDA-MB-231, tested after 24, 48, 72h in cell culture
Protocol: The EC50 refers to the inhibitory effect of the compounds on the proliferation of triple negative human breast cancer cells (MDA-MB-231), tested after 24, 48, 72h in cell culture.
We used the triple-negative human breast cancer line, MDA-MB-231 and quantified DNA in vital cells. Dose-response curves were made after 24, 48 & 72 h. […] The compound with the lowest EC50 (Compound #1) was tested in vivo.

GHR = GHR protein levels and phosphorylation in GHR-expressing HEK293T cells transfected with Jak2 (blot, Figure 4A); type: cell-based, rabbit; details: overnight treatment, compounds 10 µM; 90 ng GH/ml 10 min before lysis
Text: • Figure 1. […] Unphosphorylated fos-GHRct is rapidly degraded.

GM-CSF signaling = assay: GH/GM-CSF flow cytometric test in whole human blood with IM-9 lymphoblasts; details: selectivity versus another Jak2-dependent cytokine
Protocol: This allowed simultaneous testing of GH- and GM-CSF activity. The GH/GM-CSF cytometric test added two important criteria to GH signaling: The test prioritized compounds that target the GH-driven signaling at the expense of another Jak2-dependent cytokine signaling (GM-CSF); equally important: it selected compounds that exert a rapid effect on the GH/IGF-axis as the response time for STAT5 phosphorylation was limited to 20-30 min.
(§2) GH-induced GH-GHR-Jak2 signaling was probed by GHR pY staining in concentration series (0-20 µM, 1 h drug-treated, 10 min GH).

GH-GHR-Jak2 signaling = assay: GH-induced signaling in Hek293T cells expressing GHR (pY staining, concentration series)
Protocol: as §2

Row | Compound | viability at 5 µM (MDA-MB-231) | viability at 5 µM (MDA-MB-453) | also measured
1 | Cc1nc(N)nc(N)c1C=CC1(c2ccc(Cl)cc2)CCCC1 [compound 17, 2-amino-5-{2-[1-(4-chlorophenyl)cyclopentyl]vinyl}-6-methyl-4-pyrimidinylamine] | 74.9% | 64% | –
2 | Cc1nc(NCc2ccccn2)nc(N)c1C=CC(C)(C)c1ccc(C(F)(F)F)cc1 [compound 6, 6-methyl-5-{3-methyl-3-[4-(trifluoromethyl)phenyl]but-1-en-1-yl}-N^2-[(pyridin-2-yl)methyl]pyrimidine-2,4-diamine] | – | – | EC50 ([1]; Homo sapiens): 2 µM
3 | Cc1nc(N)nc(N)c1C=CC1(c2ccccc2C(F)(F)F)CC1 [compound 21, 6-methyl-5-[2-[1-[2-(trifluoromethyl)phenyl]cyclopropyl]vinyl]pyrimidine-2,4-diamine] | 87.9% | 52.9% | –
4 | Cc1nc(N)nc(N)c1C=CC(C)(C)c1cc(Cl)cc(Cl)c1 [compound 18, 2-amino-5-[3-(3,5-dichlorophenyl)-3-methyl-1-butenyl]-6-methyl-4-pyrimidinylamine] | 89.7% | 78.9% | –
5 | 5-{[1-(4-chlorophenyl)cyclopropyl]ethynyl}-6-methylpyrimidine-2,4-diamine [Compound #2] | – | – | EC50 [1]: 0.08 µM; amounts of GHR at the plasma membrane (PM) and in the endoplasmic reticulum (ER) / GHR protein levels (GHR): decreased; activity towards GM-CSF signaling (GM-CSF signaling): inactive; phosphorylation of fos-GHRct (fos-pGHRct), of the active site of Jak2 (p1007/1008) and of STAT5 (pSTAT5) (GH-GHR-Jak2 signaling): inhibited
6 | Cc1nc(N)nc(N)c1C=CC1(c2ccc(Cl)cc2)CC1 [compound 8, 5-[2-[1-(4-chlorophenyl)cyclopropyl]vinyl]-6-methylpyrimidine-2,4-diamine] | 91.2% | 49.5% | –
7 | Cc1nc(N)nc(N)c1C#CC1(c2cccc(C(F)(F)F)c2)CC1 [compound 27, 6-methyl-5-[2-[1-[3-(trifluoromethyl)phenyl]cyclopropyl]ethynyl]pyrimidine-2,4-diamine] | 105% | 73% | –
8 | Cc1nc(N)nc(N)c1C=CC(C)(C)c1ccc(Cl)cc1 [compound 12, 2-amino-5-[3-(4-chlorophenyl)-3-methyl-1-butenyl]-6-methyl-4-pyrimidinylamine] | 93.3% | 56.5% | –
9 | CC(C)c1nc(N)nc(N)c1C=CC(C)(C)c1ccc(C(F)(F)F)cc1 [compound 19, 6-isopropyl-5-{3-methyl-3-[4-(trifluoromethyl)phenyl]-1-butenyl}-2,4-pyrimidinediamine] | 89.8% | 80.6% | –
10 | Cc1nc(N)nc(N)c1C=CC1(c2cccc(C(F)(F)F)c2)CC1 [compound 26, 6-methyl-5-[2-[1-[3-(trifluoromethyl)phenyl]cyclopropyl]vinyl]pyrimidine-2,4-diamine] | 103% | 63.2% | –
11 | Cc1nc(N)nc(N)c1C=CC(C)(C)c1ccc(Cl)c(Cl)c1 [compound 13, 2-amino-5-[3-(3,4-dichlorophenyl)-3-methyl-1-butenyl]-6-methyl-4-pyrimidinylamine] | 79.6% | 48.9% | –
12 | Cc1nc(N)nc(N)c1C=CC(C)(C)c1ccc(S(C)(=O)=O)cc1 [compound 20, 2-amino-6-methyl-5-{3-methyl-3-[4-(methylsulfonyl)phenyl]-1-butenyl}-4-pyrimidinylamine] | 64.2% | 63.7% | –
13 | Cc1nc(N)nc(N)c1C=CC1(c2ccc(N3CCOCC3)cc2)CC1 [compound 25, 6-methyl-5-[2-[1-(4-morpholinophenyl)cyclopropyl]vinyl]pyrimidine-2,4-diamine] | 91.6% | 40.5% | –
14 | Cc1nc(N)nc(N)c1C#CC1(c2ccc(OC(F)(F)F)cc2)CC1 [compound 29, 6-methyl-5-[2-[1-[4-(trifluoromethoxy)phenyl]cyclopropyl]ethynyl]pyrimidine-2,4-diamine] | 95.5% | 62.6% | –
15 | Cc1nc(N)nc(N)c1C#CC1(c2ccc(N3CCOCC3)cc2)CC1 [compound 28, 6-methyl-5-[2-[1-(4-morpholinophenyl)cyclopropyl]ethynyl]pyrimidine-2,4-diamine] | 107% | 70.1% | –
16 | Cc1nc(N)nc(N)c1C#CC1(c2ccc(C(F)(F)F)cc2)CC1 [compound 23, 6-methyl-5-[2-[1-[4-(trifluoromethyl)phenyl]cyclopropyl]ethynyl]pyrimidine-2,4-diamine] | 107% | 71.7% | –
17 | Cc1nc(N)nc(N)c1C=CC(C)c1cccc(Cl)c1 (stereo not shown) [compound 14, 2-amino-5-[3-(3-chlorophenyl)-1-butenyl]-6-methyl-4-pyrimidinylamine] | 90.5% | 61.9% | –
18 | Cc1nc(N)nc(N)c1C=CC1(c2ccc(OC(F)(F)F)cc2)CC1 [compound 24, 6-methyl-5-[2-[1-[4-(trifluoromethoxy)phenyl]cyclopropyl]vinyl]pyrimidine-2,4-diamine] | 87.8% | 39.2% | –
19 | Cc1nc(N)nc(N)c1CCC(C)c1ccc(F)cc1 (stereo not shown) [compound 3, 5-[3-(4-fluorophenyl)butyl]-6-methylpyrimidine-2,4-diamine] | 87.7% | 82.7% | EC50 ([1]; Homo sapiens): 0.2 µM
20 | COc1cc(OC)cc(C(C)(C)C=Cc2c(C)nc(N)nc2N)c1 [compound 15, 5-[3-(3,5-dimethoxyphenyl)-3-methyl-1-butenyl]-6-methyl-2,4-pyrimidinediamine] | 91.8% | 66.7% | –
21 | CC(C)(C=Cc1c(N)nc(N)nc1CCC(F)(F)F)c1ccc(C(F)(F)F)cc1 [compound 4, 5-{3-methyl-3-[4-(trifluoromethyl)phenyl]but-1-en-1-yl}-6-(3,3,3-trifluoropropyl)pyrimidine-2,4-diamine] | 115% | 78.9% | EC50 ([1]; Homo sapiens): 0.4 µM
22 | COc1ccc(C2(C=Cc3c(C)nc(N)nc3N)CC2)cc1 [compound 22, 5-[2-[1-(4-methoxyphenyl)cyclopropyl]vinyl]-6-methylpyrimidine-2,4-diamine] | 85.3% | 42.1% | –
23 | Cc1nc(N)nc(N)c1C=CC(C)(C)c1ccc(C(F)(F)F)cc1 [compound 9, 2-amino-6-methyl-5-{3-methyl-3-[4-(trifluoromethyl)phenyl]-1-butenyl}-4-pyrimidinylamine] | 91.8% | 38.9% | –
24 | COc1ccc(C(C)(C)C=Cc2c(C)nc(N)nc2N)cc1 [compound 11, 2-amino-5-[3-(4-methoxyphenyl)-3-methyl-1-butenyl]-6-methyl-4-pyrimidinylamine] | 87.5% | 48.7% | –
25 | Cc1nc(N)nc(NCc2ccccn2)c1C=CC(C)(C)c1ccc(C(F)(F)F)cc1 [compound 5, 6-methyl-5-[3-methyl-3-[4-(trifluoromethyl)phenyl]but-1-en-1-yl]-N^4-[(pyridin-2-yl)methyl]pyrimidine-2,4-diamine] | 74.1% | 20.7% | EC50 ([1]; Homo sapiens): 0.8 µM
26 | Cc1nc(N)nc(N)c1C=CC(C)c1ccccc1Cl (stereo not shown) [compound 16, 2-amino-5-[3-(2-chlorophenyl)-1-butenyl]-6-methyl-4-pyrimidinylamine] | 73.7% | 61.7% | –
27 | Cc1nc(N)nc(N)c1C=CC(C)c1ccc(C(F)(F)F)cc1 (stereo not shown) [compound 7, 2-amino-6-methyl-5-{3-[4-(trifluoromethyl)phenyl]-1-butenyl}-4-pyrimidinylamine] | 94.2% | 54% | –
